How the values were obtained:
[1] = biological target: sGC α1/β1 heterodimer (Homo sapiens (Human), UniProt Q02108+Q02153); test: Cell-based sGC functional assay (cyclic GMP assay for sGC activator: CASA assay); conditions: CHO-K1/sGC cells; for Emax: CHO-K1, activity expressed as percentage of compound A (standard), read-out: % Activation; for EC50: inflection point, 4P fit, read-out: IP
In short: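 CHO-K1 cells stably expressing sGC α1/β1 were pre-incubated with or without 1 μM DETA-NO (30 min, 25 °C), then exposed to compounds for 1 hr at 37 °C with 0.5 mM IBMX. Intracellular cGMP was read by HTRF and expressed as a percentage of a reference heme-dependent activator's maximum.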

[2] = biological target: human recombinant sGC enzyme (Homo sapiens (Human), UniProt Q02108+Q02153); test: Size Exclusion Chromatography (SEC) competition binding assay using [3H] Ex-77B as the radioligand; conditions: [3H] Ex-77B radioligand, 24 hours at 37° C.
In short: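 Recombinant human sGC binding measured by competition against tritiated Ex-77B radioligand, with non-specific binding defined by 1 μM unlabeled Ex-77B.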

Structure (SMILES)	Emax [1] [%]	EC50 [1] [nM]	Ki [2] [nM]
CC(C)(Cc1coc(C2(C)C(=O)Nc3nc(-c4nn(Cc5ccc(F)cc5)c5cc(Cl)ccc45)nc(N)c32)n1)C(=O)O (stereo not drawn) [Example 173A, 3-(2-{4-amino-2-[6-chloro-1-(4-fluorobenzyl)-1H-indazol-3-yl]-5-methyl-6-oxo-6,7-dihydro-5H-pyrrolo[2,3-d]pyrimidin-5-yl}-1,3-oxazol-4-yl)-2,2-dimethyl-propanoic acid]	83.4	557	0.252
CC(C)(Cc1coc(C2(C)C(=O)Nc3nc(-c4nn(Cc5cccc(F)c5)c5cc(Cl)ccc45)nc(N)c32)n1)C(=O)O (stereo not drawn) [Example 175A, 3-(2-{4-amino-2-[6-chloro-1-(3-fluorobenzyl)-1H-indazol-3-yl]-5-methyl-6-oxo-6,7-dihydro-5H-pyrrolo[2,3-d]pyrimidin-5-yl}-1,3-oxazol-4-yl)-2,2-dimethyl-propanoic acid]	139	96	0.151
Cc1oc(C2(C)C(=O)Nc3nc(-c4nn(Cc5cccc(F)c5)c5cc(Cl)ccc45)nc(N)c32)nc1CC(C)(C)C(=O)O (stereo not drawn) [Example 176B, 3-(2-{4-amino-2-[6-chloro-1-(3-fluorobenzyl)-1H-indazol-3-yl]-5-methyl-6-oxo-6,7-dihydro-5H-pyrrolo[2,3-d]pyrimidin-5-yl}-5-methyl-1,3-oxazol-4-yl)-2,2-dimethyl-propanoic acid]	118	1470	0.13
CC(C)(CCc1coc(C2(C)C(=O)Nc3nc(-c4nn(Cc5cccc(F)c5)c5cc(Cl)ccc45)nc(N)c32)n1)C(=O)O (stereo not drawn) [Example 177B, 4-(2-{4-amino-2-[6-chloro-1-(3-fluorobenzyl)-1H-indazol-3-yl]-5-methyl-6-oxo-6,7-dihydro-5H-pyrrolo[2,3-d]pyrimidin-5-yl}-1,3-oxazol-4-yl)-2,2-dimethyl-butanoic acid]	126	351	0.118
CC(C)(Cc1coc(C2(C)C(=O)Nc3nc(-c4nn(Cc5ccc(F)cc5F)c5cc(Cl)ccc45)nc(N)c32)n1)C(=O)O (stereo not drawn) [Example 178A, 3-(2-{4-amino-2-[6-chloro-1-(2,4-difluorobenzyl)-1H-indazol-3-yl]-5-methyl-6-oxo-6,7-dihydro-5H-pyrrolo[2,3-d]pyrimidin-5-yl}-1,3-oxazol-4-yl)-2,2-dimethyl-propanoic acid]	124	429	0.116
CC(C)(Cc1coc(C2(C)C(=O)Nc3nc(-c4nn(Cc5ncccc5F)c5cc(Cl)ccc45)nc(N)c32)n1)C(=O)O (stereo not drawn) [Example 184A, 3-{2-[4-amino-2-{6-chloro-1-[(3-fluoropyridin-2-yl)methyl]-1H-indazol-3-yl}-5-methyl-6-oxo-6,7-dihydro-5H-pyrrolo[2,3-d]pyrimidin-5-yl]-1,3-oxazol-4-yl}-2,2-dimethyl-propanoic acid]	97.7	230	0.092
Cc1cccc(Cn2nc(-c3nc(N)c4c(n3)NC(=O)C4(C)c3nc(CC(C)(C)C(=O)O)co3)c3ccc(Cl)cc32)c1 (stereo not drawn) [Example 186A, 3-(2-{4-amino-2-[6-chloro-1-(3-methylbenzyl)-1H-indazol-3-yl]-5-methyl-6-oxo-6,7-dihydro-5H-pyrrolo[2,3-d]pyrimidin-5-yl}-1,3-oxazol-4-yl)-2,2-dimethyl-propanoic acid]	83.3	205	0.12
Cc1cccc(Cn2nc(-c3nc(N)c4c(n3)NC(=O)C4(C)c3nc(CC(C)(C)C(=O)O)co3)c3ccc(Cl)cc32)c1F (stereo not drawn) [Example 187A, 3-(2-{4-amino-2-[6-chloro-1-(2-fluoro-3-methyl-benzyl)-1H-indazol-3-yl]-5-methyl-6-oxo-6,7-dihydro-5H-pyrrolo[2,3-d]pyrimidin-5-yl}-1,3-oxazol-4-yl)-2,2-dimethyl-propanoic acid]	97.1	244	0.029
CC1(c2cccc(C(=O)O)c2)C(=O)Nc2nc(-c3nn(Cc4ccccc4F)c4cc(F)ccc34)nc(N)c21 (stereo not drawn) [Example 191B, 3-{4-amino-2-[6-fluoro-1-(2-fluorobenzyl)-1H-indazol-3-yl]-5-methyl-6-oxo-6,7-dihydro-5H-pyrrolo[2,3-d]pyrimidin-5-yl} benzoic acid]	114	133	0.109
CC(C)(Cn1cc(C2(C)C(=O)Nc3nc(-c4nn(Cc5ccccc5F)c5cc(F)ccc45)nc(N)c32)cn1)C(=O)O (stereo not drawn) [Example 192A, 3-(4-{4-amino-2-[6-fluoro-1-(2-fluorobenzyl)-1H-indazol-3-yl]-5-methyl-6-oxo-6,7-dihydro-5H-pyrrolo[2,3-d]pyrimidin-5-yl}-1H-pyrazol-1-yl)-2,2-dimethyl-propanoic acid]	103	1040	0.116
CC(C)(CCc1coc(C2(C)C(=O)Nc3nc(-c4nn(Cc5ccccc5F)c5cc(F)ccc45)nc(N)c32)n1)C(=O)O (stereo not drawn) [Example 193B, 4-(2-{4-amino-2-[6-fluoro-1-(2-fluorobenzyl)-1H-indazol-3-yl]-5-methyl-6-oxo-6,7-dihydro-5H-pyrrolo[2,3-d]pyrimidin-5-yl}-1,3-oxazol-4-yl)-2,2-dimethyl-butanoic acid]	89.2	69	0.052

Further lines, results first:

Emax [1] [%]	EC50 [1] [nM]	Ki [2] [nM]	Structure (SMILES)
121	682	0.173	CC(C)(Cc1csc([C@]2(C)C(=O)Nc3nc(-c4nn(Cc5ccc(F)cc5)c5cc(Cl)ccc45)nc(N)c32)n1)C(=O)O [Example 174A, (S)-3-(2-{4-amino-2-[6-chloro-1-(4-fluorobenzyl)-1H-indazol-3-yl]-5-methyl-6-oxo-6,7-dihydro-5H-pyrrolo[2,3-d]pyrimidin-5-yl}-1,3-thiazol-4-yl)-2,2-dimethyl-propanoic acid]
118	262	0.144	CC(C)(Cc1csc([C@]2(C)C(=O)Nc3nc(-c4nn(Cc5ccc(F)cc5F)c5cc(Cl)ccc45)nc(N)c32)n1)C(=O)O [Example 179A, (S)-3-(2-{4-amino-2-[6-chloro-1-(2,4-difluorobenzyl)-1H-indazol-3-yl]-5-methyl-6-oxo-6,7-dihydro-5H-pyrrolo[2,3-d]pyrimidin-5-yl}-1,3-thiazol-4-yl)-2,2-dimethyl-propanoic acid]
121	228	0.031	CC(C)(Cc1coc(C2(C)C(=O)Nc3nc(-c4nn(Cc5cccc(F)c5F)c5cc(Cl)ccc45)nc(N)c32)n1)C(=O)O (stereo not drawn) [Example 180A, 3-(2-{4-amino-2-[6-chloro-1-(2,3-difluorobenzyl)-1H-indazol-3-yl]-5-methyl-6-oxo-6,7-dihydro-5H-pyrrolo[2,3-d]pyrimidin-5-yl}-1,3-oxazol-4-yl)-2,2-dimethyl-propanoic acid]
112	278	0.094	CC(C)(Cc1csc([C@]2(C)C(=O)Nc3nc(-c4nn(Cc5cccc(F)c5F)c5cc(Cl)ccc45)nc(N)c32)n1)C(=O)O [Example 181A, (S)-3-(2-{4-amino-2-[6-chloro-1-(2,3-difluorobenzyl)-1H-indazol-3-yl]-5-methyl-6-oxo-6,7-dihydro-5H-pyrrolo[2,3-d]pyrimidin-5-yl}-1,3-thiazol-4-yl)-2,2-dimethyl-propanoic acid]
92	238	0.124	CC(C)(Cc1coc(C2(C)C(=O)Nc3nc(-c4nn(Cc5c(F)cccc5F)c5cc(Cl)ccc45)nc(N)c32)n1)C(=O)O (stereo not drawn) [Example 182A, 3-(2-{4-amino-2-[6-chloro-1-(2,6-difluorobenzyl)-1H-indazol-3-yl]-5-methyl-6-oxo-6,7-dihydro-5H-pyrrolo[2,3-d]pyrimidin-5-yl}-1,3-oxazol-4-yl)-2,2-dimethyl-propanoic acid]
111	88	0.076	CC(C)(Cc1csc([C@]2(C)C(=O)Nc3nc(-c4nn(Cc5c(F)cccc5F)c5cc(Cl)ccc45)nc(N)c32)n1)C(=O)O [Example 183A, (S)-3-(2-{4-amino-2-[6-chloro-1-(2,6-difluorobenzyl)-1H-indazol-3-yl]-5-methyl-6-oxo-6,7-dihydro-5H-pyrrolo[2,3-d]pyrimidin-5-yl}-1,3-thiazol-4-yl)-2,2-dimethyl-propanoic acid]
124	109	0.1	Cc1cccc(Cn2nc(-c3nc(N)c4c(n3)NC(=O)[C@@]4(C)c3nc(CC(C)(C)C(=O)O)cs3)c3ccc(Cl)cc32)c1F [Example 188A, (S)-3-(2-{4-amino-2-[6-chloro-1-(2-fluoro-3-methyl-benzyl)-1H-indazol-3-yl]-5-methyl-6-oxo-6,7-dihydro-5H-pyrrolo[2,3-d]pyrimidin-5-yl}-1,3-thiazol-4-yl)-2,2-dimethyl-propanoic acid]
116	51	0.049	CC(C)(Cc1coc(C2(C)C(=O)Nc3nc(-c4nn(Cc5c(F)ccc(F)c5F)c5cc(Cl)ccc45)nc(N)c32)n1)C(=O)O (stereo not drawn) [Example 189A, 3-(2-{4-amino-2-[6-chloro-1-(2,3,6-trifluorobenzyl)-1H-indazol-3-yl]-5-methyl-6-oxo-6,7-dihydro-5H-pyrrolo[2,3-d]pyrimidin-5-yl}-1,3-oxazol-4-yl)-2,2-dimethyl-propanoic acid]
120	49	0.031	CC(C)(Cc1csc([C@]2(C)C(=O)Nc3nc(-c4nn(Cc5c(F)ccc(F)c5F)c5cc(Cl)ccc45)nc(N)c32)n1)C(=O)O [Example 190A, (S)-3-(2-{4-amino-2-[6-chloro-1-(2,3,6-trifluoro-benzyl)-1H-indazol-3-yl]-5-methyl-6-oxo-6,7-dihydro-5H-pyrrolo[2,3-d]pyrimidin-5-yl}-1,3-thiazol-4-yl)-2,2-dimethyl-propanoic acid]

From US10030027B2, “Soluble guanylate cyclase stimulators” (MERCK SHARP & DOHME CORP., priority 2015, dated 2018)
